Data from patent US6465455B1, “Benzamide derivatives for the treatment of diseases mediated by cytokines” (AstraZeneca AB, priority 1998, dated 2002).

For `COc1ccc(C(=O)Nc2cc(NC(=O)c3cccc(N4CCOCC4)c3)ccc2Cl)cc1OC` [Example 4, N-[2-chloro-5-(3-morpholinobenzamido)phenyl]-3,4-dimethoxybenzamide], the melting point was 147.9 to 148.3 °C.

For `CC(=O)Oc1ccc(C(=O)Nc2ccc(Cl)c(NC(=O)c3ccc(C#N)cc3)c2)cc1` [Example 14, N-[5-(4-acetoxybenzamido)-2-chlorophenyl]-4-cyanobenzamide], the melting point was 195 to 196 °C.
